# Source: patent US5328823A, “Enzyme-based biosensors for detecting noble gases” (American Air Liquide, priority 1992, dated 1994)
# Columns and labels:
# [1] = system: Tyrosinase; assay: Gas biosensor diffusion cell, Tyrosinase/L-Tyrosine reaction monitored at 305 nm, Curlon Grade 861 film; assay type: biochemical, Mushroom; settings: gas in upper chamber of diffusion cell, 25° C.; for maximum change in enzymatic activity, Reference Air: compared to air diffusion through the film; for maximum change in enzymatic activity, Reference Nitrogen: compared to nitrogen
# Source text: Construction consists of coupling two 1-cm lightpath UV grade methacrylate covets with a ring of 100% silicone rubber (General Purpose Sealant, Dow Corning) applied on their outside rim. Before sealing with silicone, a 1-cm^2 square of a polymeric film of known permeabilities to the different gases is placed between the two cuvettes. Holes have been previously drilled in each covet (drill bit 7/64") to receive a septum (d=3 mm; h=8 mm; Supelco No. 3-3301M). 100% silicone rubber was applied around the septa to avoid possible leaks.
# Tyrosinase/L-Tyrosine monitored at 305 nm
# Enzyme: Tyrosinase (SIGMA No. T-7755) (Monophenol monooxygenase; Polyphenol oxidase; Catechol oxidase; Monophenol, dihydroxyphenylalanine: oxygen oxidoreductase; From Mushroom
# Chamber 1 (upper) is flushed for 2 […] with 100% nitrogen (very low flow to prevent tearing of the polymeric film: line delivery pressure <5 psi) at ambient temperature (25° C.), using 22G11/2 needles (small gauge to reduce risks of leakage through holes in septa).
# Chamber 2 (lower) is flushed in the same way as chamber 1.
# Chamber 2 is then filled with 2.0 ml of N2 -saturated solution C, by means of a 3 cc syringe (previously purged with N2).
# Before the spectrophotometric run, 20 cc of the appropriate gas (Air, N2, Ar, Kr, Xe) is passed through chamber 1 of each of the 3 diffusion cells simultaneously, by means of a 30 cc syringe.
# Following immediately, the run starting time t0 is given by the simultaneous injections of 0.5 ml of N2 -saturated-solution B in chamber 2 of each diffusion cell. The 1 cc syringes used for sampling the 0.5 ml are previously purged with N2.
# A selected example is given below for one of the enzymatic system/polymeric film tandems assayed. Given as well is the maximum change in enzymatic activity noted compared to the reaction resulting from air diffusion through the film, or compared to nitrogen. A sample graphic data output file is appended.
# Polymeric film insert in diffusion cells: Curlon Grade 861 (CURWOOD).
# Biochemical reaction (monitored at 305 nm): Tyrosinase/L-Tyrosine at 25° C. and optimal reaction conditions, gas in upper chamber of the diffusion cell being: […]
# [2] = system: Tyrosinase; assay: Tyrosinase/L-tyrosine biosensing bag (Curlon Grade 861) placed in gas-packaged food packages, rate of colour change; assay type: biochemical, Mushroom
# Source text: The above mentioned oxido-reductase system (tyrosinase/L-tyrosine) is placed inside a 3 cc bag by heat-sealing of the polymeric film used in protocol described above (Curlon Grade 861, Curwood).
# The 3 cc bag is placed into a series of packages containing food products under different gas mixtures, which include neon, argon, krypton, xenon, oxygen, nitrogen and carbon dioxide. The relative rate of changing color of the device, that is the development of a pink-brown color, is monitored over time.
# A similar series is run, but after holes have been punctured in the packages to simulate leaks. The rate of changing color is then monitored. Thus we have made a leak detection system.
# In the same manner, the exchange of gases through the film of the packages and the change in respiration of fresh horticultural commodities can also be monitored. […] Preparation of a standard curve permits detection of each type of gas mix relative to the other, and also permits detection of a change in oxygen level caused by vegetable respiration.
# [3] = system: β-D-Glucosidase; assay: β-D-Glucosidase/p-Nitrophenyl-β-D-Glucopyranoside biosensing bag (PE 2 mil) in gas-packaged produce, rate of yellow colour change; assay type: biochemical, Almonds; settings: packaged vegetables, compared with nitrogen packaged produce; acceleration rather than inhibition
# Source text: The above mentioned hydrolase system (β-D-Glucosidase/p-Nitrophenyl-β-D-Glucopyranoside) is placed inside a 3 cc bag by heat-sealing of the polymeric film used in protocol described above (PE 2 mil).
# The protocol followed is the same as described in the third detailed example of the invention, except for the fact that the colorigenic reaction observed is yellow, and is an acceleration rather than an inhibition. Thus, Kr packaged vegetables will produce a yellow color change in the device faster than will nitrogen packaged produce.
# [4] = system: particulate sialidase; settings: highly impure enzymes; the patent calls these results questionable; cited from earlier work
# [5] = per atmosphere of added nitrous oxide; independent of oxygen partial pressure; cited from earlier work
Structure (SMILES),"maximum change in enzymatic activity, Reference Air [1] [%]","maximum change in enzymatic activity, Reference Nitrogen [1] [%]","rate of changing color of the biosensing device (pink-brown) ([2]; packaged vegetables, compared with the package under 100% N2)","rate of changing color of the biosensing device, case of a leak ([2]; package under 100% gas, compared with 100% N2)",rate of yellow color change in the device [3],effect on activity of particulate sialidase [4],inhibition per atmosphere of added gas [5] [%]
"[Ar] [Ar, argon]",-25,-21,turns color more slowly,–,–,–,–
"[Kr] [Kr, krypton]",-35,-32,–,turns color more slowly,faster,–,–
"[Xe] [Xe, xenon]",-30,-26,–,–,–,enhance the activity,–
FC(F)(F)C(Cl)Br (stereo not shown) [halothane],–,–,–,–,–,enhance the activity,–
[N-]=[N+]=O [nitrous oxide],–,–,–,–,–,enhance the activity,1.9
